# Source: PubChem BioAssay AID624274 (Broad Institute, 2012)
# Several values for one entry are separate records, joined by “and”; a condition that tells them apart may be missing. Equal entries are not always repeated.
# Target: Protein disulfide-isomerase (Homo sapiens) (UniProt P07237)
# Assay: inhibition of PDI-mediated insulin reduction – biochemical, turbidity, absorbance, cherry-picked samples, set 2, dose response (AID 624274)
# Settings: absorbance 650 nm
# Sequence of Protein disulfide-isomerase (Homo sapiens) (P07237 whole entry, looked up): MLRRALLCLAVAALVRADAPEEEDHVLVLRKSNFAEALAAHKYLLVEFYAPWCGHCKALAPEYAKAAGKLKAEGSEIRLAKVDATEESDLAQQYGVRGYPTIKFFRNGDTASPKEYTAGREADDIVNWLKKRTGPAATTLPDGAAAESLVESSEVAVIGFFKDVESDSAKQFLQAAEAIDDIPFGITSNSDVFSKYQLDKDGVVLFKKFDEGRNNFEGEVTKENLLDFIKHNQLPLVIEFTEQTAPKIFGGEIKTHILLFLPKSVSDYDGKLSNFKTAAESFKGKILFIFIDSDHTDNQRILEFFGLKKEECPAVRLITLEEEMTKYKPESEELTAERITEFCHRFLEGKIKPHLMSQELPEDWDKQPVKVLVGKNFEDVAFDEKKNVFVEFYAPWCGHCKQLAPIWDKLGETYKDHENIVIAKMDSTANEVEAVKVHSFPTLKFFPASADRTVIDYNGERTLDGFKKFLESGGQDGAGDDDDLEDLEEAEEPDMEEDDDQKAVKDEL
row,Compound,AC50
1,C[C@@H]1CN([C@@H](C)CO)C(=O)c2cccc(NS(C)(=O)=O)c2O[C@H]1CN(C)Cc1ccc(Oc2ccccc2)cc1,19.5 µM and 7.04 µM
2,O=C1C[C@@H](c2ccc(O[C@@H]3O[C@H](CO)[C@@H](O)[C@H](O)[C@H]3O)cc2)Oc2cc(O)ccc21,15.6 µM
3,O=c1c(O[C@H]2O[C@@H](CO)[C@H](O)[C@@H](O)[C@@H]2O)c(-c2ccc(O)cc2)oc2cc(O)cc(O)c12,0.0155 µM
4,C[C@H](CO)N1C[C@H](C)[C@H](CN(C)S(=O)(=O)c2ccc(F)cc2)Oc2ccc(NC(=O)Cc3cn(C)c4ccccc34)cc2C1=O,19.5 µM
5,Cc1n[nH]c(=O)c2c(NC(=O)CSc3nnnn3-c3ccc(O)cc3)oc(C)c12,19.5 µM
6,CC(C)(C)OC(=O)N[C@@H](Cc1c[nH]c2ccccc12)c1nnc(SCC(N)=O)o1,19.5 µM
7,Cc1noc(C)c1S(=O)(=O)Nc1ccc2c(c1)CC(=O)N([C@H](C)CO)C[C@H](C)[C@H](CN(C)S(=O)(=O)c1ccccc1)O2,19.5 µM
8,O=C(/C=C/c1ccc(NC(=O)c2ccccc2-c2ccccc2C(=O)O)cc1)c1ccccc1,11.4 µM
9,C[C@@H]1O[C@@H](OC[C@@H]2O[C@H](Oc3c(-c4ccc(O)cc4)oc4cc(O)cc(O)c4c3=O)[C@@H](O)[C@H](O)[C@H]2O)[C@H](O)[C@H](O)[C@H]1O,3.51 µM
10,CCN(CC)CCNC(=O)C(C(=O)c1ccccc1)n1ccccc1=O (stereo unspecified),2.16 µM
11,CCOC(=O)c1c(CNCCN(CC)CC)n(C)c2cc(Br)c(OC)cc12,0.376 µM
12,C[C@@H]1CN([C@@H](C)CO)C(=O)c2cc(NC(=O)Cc3cn(C)c4ccccc34)ccc2O[C@H]1CN(C)S(=O)(=O)c1ccc(F)cc1,2.08 µM
13,O=c1c(OC2OC(CO)C(O)C(O)C2O)c(-c2ccc(O)c(O)c2)oc2cc(O)cc(O)c12 (stereo unspecified),8.92 µM
14,C[C@@H]1O[C@@H](Oc2c(-c3ccc(O)c(O)c3)oc3cc(O)cc(O)c3c2=O)[C@H](O)[C@H](O)[C@H]1O,2.48 µM and 5.59 µM
15,CCOc1cc(N2CCOCC2)c(OCC)cc1NC(=O)COC(=O)[C@H](Cc1c[nH]c2ccccc12)NC(C)=O,19.5 µM
16,C[C@@H]1O[C@@H](O[C@H]2[C@H](O)[C@@H](O)[C@H](Oc3c(-c4ccc(O)cc4)oc4cc(O)cc(O)c4c3=O)O[C@@H]2CO)[C@H](O)[C@H](O)[C@H]1O,6.92 µM

row,Compound,AC50
1,Cc1c(O)ccc2c(CN3CCN(CCO)CC3)cc(=O)oc12,8.66 µM
2,Cc1noc(C)c1S(=O)(=O)Nc1ccc2c(c1)CC(=O)N([C@@H](C)CO)C[C@@H](C)[C@H](CN(C)S(=O)(=O)c1ccc(F)cc1)O2,19.5 µM
3,COc1ccc(/C=C2\CN(Cc3ccccc3)C/C(=C\c3ccc(OC)c(O)c3)C2=O)cc1O,2.98 µM
4,C[C@@H]1O[C@@H](O[C@H]2[C@H](O)[C@@H](O)[C@H](Oc3c(-c4ccc(O)c(O)c4)oc4cc(O)cc(O)c4c3=O)O[C@@H]2CO)[C@H](O)[C@H](O)[C@H]1O,4.28 µM
5,Cn1cnnc1Sc1ccc(/C=C/C(=O)c2ccc(O)cc2)cc1[N+](=O)[O-],0.422 µM
6,COc1cc2cc(C(=O)N3CC(COS(C)(=O)=O)c4ccc(O)cc43)[nH]c2c(OC)c1OC (stereo unspecified),18 µM
7,C[C@]12CC[C@@H]3c4ccc(O[C@@H]5O[C@H](C(=O)O)[C@@H](O)[C@H](O)[C@H]5O)cc4CC[C@H]3[C@@H]1C[C@@H](O)[C@@H]2O,15.7 µM
8,COC(=O)CC1OCC=C2CN3CCC45C6=CC(=O)C(=O)C([N+](=O)[O-])=C6NC4C1C2CC35 (stereo unspecified),8.03 µM
9,Cc1c(O)ccc2c(CC(=O)N[C@@H](Cc3c[nH]c4ccccc34)C(=O)O)cc(=O)oc12,6.76 µM
10,CCc1cc(OCCCCNCc2ccccc2)ccc1Cl,10.6 µM
11,COc1cccc(NS(=O)(=O)c2ccc3c(c2)C2C=CCC2C(c2ccc(C(=O)O)cc2)N3)c1 (stereo unspecified),15.8 µM
12,CN(C)S(=O)(=O)c1ccc(Cl)c(NC(=O)CSc2nnnn2-c2ccc(O)cc2)c1,19.5 µM
13,O=C(CCC1CCCCC1)NCCN1C2=NC[C@H](Cc3ccc(O)cc3)N2C[C@H]1Cc1ccc(O)cc1,19.5 µM
14,CCOC(=O)C1(CCOc2ccccc2)CCN(Cc2ccc(O)c(Cl)c2)CC1,0.599 µM
15,C[C@H]1CN([C@@H](C)CO)C(=O)Cc2cc(NC(=O)Nc3ccccc3)ccc2O[C@H]1CN(C)Cc1ccccc1,10.3 µM
